Laboratory results from the supplement of paper PMC10307832.

Experiments:
Assay in all cases: relative viability (nuclei count vs DMSO), 5 days (fraction); higher = more cells survive
[1] = compound: C1COCCN1C2=NC(=NC3=C2OC4=C3C=CC=N4)C5=CC(=CC=C5)NC(=O)C6=CN=C(C=C6)N + N=C(N)NC(=N)NCCc1ccccc1 [Phenformin] (partner 250 µM)
Procedure, shortened: (§1)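 Relative viability is defined as nuclei in treated wells over nuclei in vehicle wells. Duplicate plates were run and medians reported. Lung cancer cell lines in 1536-well plates were dosed by pin tool one day after seeding, with one drug or with a fixed anchor-drug dose plus five library-drug doses (not always all listed) in √10 steps, and nuclei were counted after 5 days.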

[2] = compound: C1COCCN1C2=NC(=NC3=C2OC4=C3C=CC=N4)C5=CC(=CC=C5)NC(=O)C6=CN=C(C=C6)N + CC(=O)c1c(C)c2cnc(Nc3ccc(N4CCNCC4)cn3)nc2n(C2CCCC2)c1=O [Palbociclib] (partner 0.5 µM)
Procedure, shortened: as §1

Entinostat + Bortezomib = compound: Nc1ccccc1NC(=O)c1ccc(CNC(=O)OCc2cccnc2)cc1 [Entinostat] + CC(C)C[C@H](NC(=O)[C@H](Cc1ccccc1)NC(=O)c1cnccn1)B(O)O [Bortezomib] (partner 0.002 µM)
Procedure, shortened: as §1

SGI-1776 + Crizotinib = compound: CN1CCC(CNc2ccc3ncc(-c4cccc(OC(F)(F)F)c4)n3n2)CC1 [SGI-1776] + C[C@@H](Oc1cc(-c2cnn(C3CCNCC3)c2)cnc1N)c1c(Cl)ccc(F)c1Cl [Crizotinib] (partner 1 µM)
Procedure, shortened: as §1

Cell Line	relative viability ([1]; first compound 0.02 µM)	relative viability ([1]; first compound 0.06325 µM)	relative viability ([1]; first compound 0.2 µM)	relative viability ([1]; first compound 0.6325 µM)	relative viability ([1]; first compound 2 µM)	relative viability ([2]; first compound 0.02 µM)	relative viability ([2]; first compound 0.06325 µM)	relative viability ([2]; first compound 0.2 µM)	relative viability ([2]; first compound 0.6325 µM)	relative viability ([2]; first compound 2 µM)	relative viability (Entinostat + Bortezomib; first compound 0.02 µM)	relative viability (Entinostat + Bortezomib; first compound 0.06325 µM)	relative viability (Entinostat + Bortezomib; first compound 0.2 µM)	relative viability (Entinostat + Bortezomib; first compound 0.6325 µM)	relative viability (Entinostat + Bortezomib; first compound 2 µM)	relative viability (SGI-1776 + Crizotinib; first compound 0.08 µM)	relative viability (SGI-1776 + Crizotinib; first compound 0.8 µM)	relative viability (SGI-1776 + Crizotinib; first compound 2.53 µM)	relative viability (SGI-1776 + Crizotinib; first compound 8 µM)
201T	0.452	0.448	0.443	0.428	0.33	0.357	0.358	0.372	0.346	0.324	1.09	1.11	1.05	1.01	0.872	1.05	1.04	1.01	1.01
NCI-H2023	0.424	0.457	0.346	0.32	0.156	0.378	0.384	0.316	0.256	0.172	0.859	0.85	0.411	0.166	0.105	0.565	0.621	0.56	0.333
NCI-H23	0.818	–	0.815	0.747	0.669	0.622	0.555	0.457	0.524	0.225	0.91	1.41	1.12	0.808	0.497	0.747	0.368	0.383	0.256
LXF-289	0.523	0.536	0.541	0.49	0.383	0.603	0.604	0.623	0.612	0.384	1.01	0.986	0.96	0.725	0.646	0.803	0.805	0.813	0.786
EKVX	0.223	0.21	0.207	0.216	0.181	0.357	0.393	0.353	0.373	0.438	1.1	0.992	0.999	0.853	0.445	0.847	1.01	0.977	0.882
LC-2-ad	0.551	0.598	0.456	0.493	0.49	0.518	0.484	0.469	0.526	0.396	0.961	0.895	0.818	0.591	0.197	0.53	0.47	0.414	0.36
ABC-1	0.225	0.242	0.241	0.235	0.207	0.562	0.658	0.55	0.7	0.471	0.338	0.327	0.331	0.216	0.277	0.989	1.17	0.707	0.317
NCI-H1734	0.372	0.387	0.371	0.338	0.251	0.413	0.355	0.342	0.33	0.271	0.895	1.1	1.06	0.753	0.472	0.658	0.686	0.617	0.402
LOU-NH91	0.709	0.723	0.724	0.721	0.652	0.541	0.551	0.565	0.49	0.535	0.496	0.52	0.534	0.545	0.512	0.776	0.747	0.693	0.593
